Test [1] deals with breast adenocarcinoma (MCF-7). Nature of the test: MTT cytotoxicity assay, MCF-7. The note with it: Homo sapiens, MCF7, read-out: IC50 MCF-7. A general note: Formazan colour is commonly taken as a measure of viable cells.
Another test deals with hepatoblastoma (HePG-2). Put plainly: MTT cytotoxicity assay, HePG-2. The following applies: Homo sapiens, HepG2, read-out: IC50 HePG-2.
For test [2], the system named is human colorectal carcinoma (HCT-116). Put plainly: MTT cytotoxicity assay, HCT-116. The note with it: Homo sapiens, HCT-116, read-out: IC50 HCT-116.
Test [3] relates to WI-38 normal fibroblast cell line. Nature of the test: MTT cytotoxicity against normal human cells. In kind it is cell-based. The following applies: Homo sapiens. How it is done: The evaluation was conducted using a 3-(4,5-dimethylthiazol-2-yl)-2,5-diphenyltetrazolium bromide (MTT) assay, as described by the authors of [50, 51]. The cell lines were obtained from ATCC. For comparative purposes, standard drugs, such as doxorubicin and erlotinib, were employed.

Test [4] concerns HCT-116, HePG-2, and MCF-7. Put plainly: MTT cytotoxicity, summary over the examined cancer cell lines. The following applies: Homo sapiens, read-out: IC50 range against the selected cell lines.
Test [5] has as its system anti-apoptotic protein MCL-1 in MCF-7. Nature of the test: MCL-1 expression in MCF-7 cells (ELISA). The format is cell-based, human. Here is the method:
(§1) Apoptosis is regulated by intrinsic pathways such as the B-cell lymphoma-2 (BCL-2) family. […] MCL-1, one of the BCL-2 family members, is likely to have a significant role in cell death. The expression of MCL-1 and BCL-2 in MCF-7 cells treated with different concentrations was studied.
(§2) Apoptosis of the MCF-7 cancer cell line was measured using the Human MCL1eia kit (ELISA Kit) for the MCL-1 enzyme assay and the Invitrogen Zymed® Bcl-2 ELISA Kit for the BCL-2 enzyme assay. The ROBONIK P2000 ELISA READER was used for analysis.
Background: An ELISA detects its analyte on a solid surface through an enzyme-linked reagent.

Test [6] relates to anti-apoptotic protein BCL-2 in MCF-7. Nature of the test: BCL-2 expression in MCF-7 cells (ELISA). In kind it is cell-based, human. How it is done: as §1, §2
A further test concerns MCF-7 cell line. Nature of the test: Cell cycle analysis (propidium iodide, flow cytometry). The format is cell-based, human. An excerpt:
Cell cycle analysis is used to quantify DNA content distribution via flow cytometry at various cell cycle stages (pre-G1, G1, S, and G2/M). Compound 24 was selected to analyze its effect on cell cycle progression in the MCF-7 cell line at different concentrations.
Cancer cell line MCF-7 was stained with ab139418_Propidium Iodide (DNA stain) and analyzed using a FACSCalibur flow cytometer.
A general note: A flow cytometer gives signals particle by particle.

Here are results for 19 compounds from publication PMC12030650, “Synthesis, Antitumor Activities, and Apoptosis-Inducing Activities of Schiff’s Bases Incorporating Imidazolidine-2,4-dione Scaffold: Molecular Docking Studies and Enzymatic Inhibition Activities” (Pharmaceuticals, 2025).

The structures appear in SMILES notation. Like-named read-outs stand apart in the source and are kept apart here.

Broadly, the IC50 is the concentration needed to halve the response being measured. Take `CC(=NNC(=O)CN1C(=O)NC(c2ccccc2)(c2ccccc2)C1=O)c1ccccc1` [Compound 7, 2-(2,5-Dioxo-4,4-diphenylimidazolidin-1-yl)-N′-(1-phenylethylidene)acetohydrazide]: the values for the IC50 (in test [1]; in the test with hepatoblastoma (HePG-2); in test [2]) were 38.3 ± 2.2 µM, 55.8 ± 3.3 µM and 47.5 ± 2.8 µM, respectively.

`CC(=NNC(=O)CN1C(=O)NC(c2ccccc2)(c2ccccc2)C1=O)c1ccccc1C` [Compound 8, 2-(2,5-Dioxo-4,4-diphenylimidazolidin-1-yl)-N′-(1-(o-tolyl)ethylidene)acetohydrazide]: the IC50 in test [1] amounted to 34.1 ± 2 µM; in the test with hepatoblastoma (HePG-2), 25.4 ± 1.8 µM; in test [2] it was 37.6 ± 2.3 µM.

As for `CC(=NNC(=O)CN1C(=O)NC(c2ccccc2)(c2ccccc2)C1=O)c1ccc(C)cc1` [Compound 9, 2-(2,5-Dioxo-4,4-diphenylimidazolidin-1-yl)-N′-(1-(p-tolyl)ethylidene)acetohydrazide], the IC50 came to 69 ± 3.9 µM in test [1], 29.7 ± 2.1 µM in the test on hepatoblastoma (HePG-2) and 71.2 ± 3.8 µM in test [2].

As to `CC(=NNC(=O)CN1C(=O)NC(c2ccccc2)(c2ccccc2)C1=O)c1ccc(F)cc1` [Compound 11, 2-(2,5-Dioxo-4,4-diphenylimidazolidin-1-yl)-N′-(1-(4-fluorophenyl)ethylidene)acetohydrazide], the IC50 in test [1] was found to be 14.2 ± 1.2 µM; with hepatoblastoma (HePG-2), 21.1 ± 1.8 µM; in test [2] it was 28.3 ± 2.1 µM.

Regarding `CC(=NNC(=O)CN1C(=O)NC(c2ccccc2)(c2ccccc2)C1=O)c1ccc(C(F)(F)F)cc1` [Compound 12, 2-(2,5-Dioxo-4,4-diphenylimidazolidin-1-yl)-N′-(1-(4-(trifluoromethyl)phenyl)ethylidene)acetohydrazide], the figures for the IC50 (in test [1]; with hepatoblastoma (HePG-2); in test [2]) were 45.8 ± 2.4 µM, 47.7 ± 2.7 µM and 52.5 ± 3 µM, respectively.

For the compound `COc1ccccc1C(C)=NNC(=O)CN1C(=O)NC(c2ccccc2)(c2ccccc2)C1=O` [Compound 14, 2-(2,5-Dioxo-4,4-diphenylimidazolidin-1-yl)-N′-(1-(2-methoxyphenyl)ethylidene)acetohydrazide], the half-inhibitory concentration (IC50) in test [1] is 59.1 ± 3.4 µM; with hepatoblastoma (HePG-2), 63.3 ± 3.8 µM; in test [2], 74 ± 3.9 µM.

Take `COc1cccc(C(C)=NNC(=O)CN2C(=O)NC(c3ccccc3)(c3ccccc3)C2=O)c1` [Compound 15, 2-(2,5-Dioxo-4,4-diphenylimidazolidin-1-yl)-N′-(1-(3-methoxyphenyl)ethylidene)acetohydrazide]: the IC50 was found to be 55.3 ± 3.2 µM in test [1], 45.1 ± 2.5 µM with hepatoblastoma (HePG-2) and 53.9 ± 3.1 µM in test [2].

For `COc1ccc(C(C)=NNC(=O)CN2C(=O)NC(c3ccccc3)(c3ccccc3)C2=O)cc1` [Compound 16, 2-(2,5-Dioxo-4,4-diphenylimidazolidin-1-yl)-N′-(1-(4-methoxyphenyl)ethylidene)acetohydrazide], the figures for the IC50 (in test [1]; in the test on hepatoblastoma (HePG-2); in test [2]) were 35.8 ± 2.1 µM, 27.3 ± 2 µM and 36.5 ± 2.4 µM, respectively.

For the compound `COc1ccc(C(C)=NNC(=O)CN2C(=O)NC(c3ccccc3)(c3ccccc3)C2=O)cc1OC` [Compound 17, N′-(1-(3,4-Dimethoxyphenyl)ethylidene)-2-(2,5-dioxo-4,4-diphenylimidazolidin-1-yl)acetohydrazide], the IC50 worked out at 15.7 ± 1.3 µM in test [1], 19.6 ± 1.7 µM in the test on hepatoblastoma (HePG-2) and 26.8 ± 2 µM in test [2].

For `COc1cc(C(C)=NNC(=O)CN2C(=O)NC(c3ccccc3)(c3ccccc3)C2=O)cc(OC)c1OC` [Compound 18, 2-(2,5-Dioxo-4,4-diphenylimidazolidin-1-yl)-N′-(1-(3,4,5-trimethoxyphenyl)ethylidene)acetohydrazide], the IC50 was determined as 60.8 µM in test [3] (normal fibroblast WI-38, read-out: IC50 WI-38); 26 ± 1.6 µM in test [1]; 37.2 ± 2.3 µM in the test with hepatoblastoma (HePG-2); 39.6 ± 2.4 µM in test [2].

On to `CC(=NNC(=O)CN1C(=O)NC(c2ccccc2)(c2ccccc2)C1=O)c1ccc([N+](=O)[O-])cc1` [Compound 19, 2-(2,5-Dioxo-4,4-diphenylimidazolidin-1-yl)-N′-(1-(4-nitrophenyl)ethylidene)acetohydrazide], for which the figures for the IC50 (in test [1]; in the test on hepatoblastoma (HePG-2); in test [2]) were 20.4 ± 1.5 µM, 19.9 ± 1.8 µM and 31.3 ± 2.1 µM, respectively.

On to `CC(=NNC(=O)CN1C(=O)NC(c2ccccc2)(c2ccccc2)C1=O)c1ccccn1` [Compound 20, 2-(2,5-Dioxo-4,4-diphenylimidazolidin-1-yl)-N′-(1-(pyridin-2-yl)ethylidene)acetohydrazide], for which the concentration for half-maximal inhibition (IC50) in test [1] is 32.4 ± 1.9 µM; in the test with hepatoblastoma (HePG-2), 49.1 ± 2.8 µM; in test [2], 46.7 ± 2.7 µM.

Turning to `CC(=NNC(=O)CN1C(=O)NC(c2ccccc2)(c2ccccc2)C1=O)c1ccncc1` [Compound 22, 2-(2,5-Dioxo-4,4-diphenylimidazolidin-1-yl)-N′-(1-(pyridin-4-yl)ethylidene)acetohydrazide], the IC50 in test [1] came to 13.1 ± 1.1 µM; with hepatoblastoma (HePG-2), 17.2 ± 1.6 µM; in test [2], 26 ± 1.9 µM.

Regarding `CC(=NNC(=O)CN1C(=O)NC(c2ccccc2)(c2ccccc2)C1=O)c1cccc2ccccc12` [Compound 23, 2-(2,5-Dioxo-4,4-diphenylimidazolidin-1-yl)-N′-(1-(naphthalen-1-yl)ethylidene)acetohydrazide], the IC50 turned out to be 28.1 ± 1.7 µM in test [1], 31.8 ± 2.1 µM with hepatoblastoma (HePG-2) and 34.4 ± 2.3 µM in test [2].

Regarding `CC(=NNC(=O)CN1C(=O)NC(c2ccccc2)(c2ccccc2)C1=O)c1ccco1` [Compound 25, 2-(2,5-Dioxo-4,4-diphenylimidazolidin-1-yl)-N′-(1-(furan-2-yl)ethylidene)acetohydrazide], the IC50 in test [1] worked out at 47.3 ± 2.6 µM; with hepatoblastoma (HePG-2), 34.6 ± 2.1 µM; in test [2] it was 49.9 ± 2.9 µM.

As to `CC(=NNC(=O)CN1C(=O)NC(c2ccccc2)(c2ccccc2)C1=O)c1cccs1` [Compound 26, 2-(2,5-Dioxo-4,4-diphenylimidazolidin-1-yl)-N′-(1-(thiophen-2-yl)ethylidene)acetohydrazide], the IC50 worked out at 76.8 ± 4.2 µM in test [1], 32.3 ± 2.2 µM with hepatoblastoma (HePG-2) and 87.5 ± 4.6 µM in test [2].

`CC(=NNC(=O)CN1C(=O)NC(c2ccccc2)(c2ccccc2)C1=O)c1ccc(Cl)s1` [Compound 27, N′-(1-(5-Chlorothiophen-2-yl)ethylidene)-2-(2,5-dioxo-4,4-diphenylimidazolidin-1-yl)acetohydrazide]: the IC50 in test [1] was 19.7 ± 1.5 µM; with hepatoblastoma (HePG-2), 16.8 ± 1.6 µM; in test [2], 33.2 ± 2.2 µM.

Consider `COc1cccc2c1C(=O)c1c(O)c3c(c(O)c1C2=O)C[C@@](O)(C(=O)CO)C[C@@H]3O[C@H]1C[C@H](N)[C@H](O)[C@H](C)O1` [Doxorubicin, reference compound], for which the values for the IC50 (in the test with hepatoblastoma (HePG-2); in test [4]) were 4.5 ± 0.2 µM and 4.17 to 5.23 µM, respectively.

Consider `C#Cc1cccc(Nc2ncnc3cc(OCCOC)c(OCCOC)cc23)c1` [Erlotinib, reference compound], for which the IC50 in test [3] (WI-38, read-out: IC50 WI-38) was 46.5 µM; in test [1], 5.18 ± 0.4 µM; in the test with hepatoblastoma (HePG-2), 7.9 ± 0.6 µM; in test [2], 8.53 ± 0.5 µM; in test [4], 5.18 to 8.53 µM. In addition, the figures for the MCL-1 expression level in test [5] (2 µM) and in test [5] (10 μM) were 560.59 pg/mL and 162.37 pg/mL, respectively. Further, the results for the BCL-2 expression level in test [6] (2 µM) and in test [6] (10 μM) were 13.96 ng/mL and 3.73 ng/mL, respectively. The figures for the “Comment (cell cycle arrest)” value in the test with MCF-7 cell line and in the test on MCF-7 cell line (listed as erlotinib) were “Cell cycle arrest at G2/M” and “cell cycle arrest appeared at the G2/M phase”, respectively. Also, the “%G0–G1” value with MCF-7 cell line (2 µM) is listed as 46.12%; in the test on MCF-7 cell line (10 μM) it was 35.89%. For the same compound, the “%G2/M” value worked out at 31.05% with MCF-7 cell line (2 µM) and 48.39% with MCF-7 cell line (10 μM). Further, the figures for the “%S” value in the test on MCF-7 cell line (2 µM) and in the test with MCF-7 cell line (10 μM) were 22.83% and 15.72%, respectively.
